Like-named read-outs stand apart in the source and are kept apart here.
What was measured:
mouse TAAR1 = mouse TAAR1 (Mus musculus (Mouse), UniProt Q923Y8); test: Radioligand binding assay on mouse TAAR1
rat TAAR1 = rat TAAR1 (Rattus norvegicus (Rat), UniProt Q923Y9); test: Radioligand binding assay on rat TAAR1;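 also: membranes from HEK293 cells stably transfected with rat TAAR1, tritiated TAAR1 radioligand, 1 h incubation at 4 °C, nonspecific binding determined with excess unlabeled ligand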
[1] = read-out: Ki (μM) mouse, mouse TAAR1, HEK-293 membranes, first value of cell mouse/rat
[2] = read-out: Ki (μM) rat, rat TAAR1, HEK-293 membranes, second value of cell mouse/rat

Sequence of rat TAAR1 (Q923Y9 whole entry): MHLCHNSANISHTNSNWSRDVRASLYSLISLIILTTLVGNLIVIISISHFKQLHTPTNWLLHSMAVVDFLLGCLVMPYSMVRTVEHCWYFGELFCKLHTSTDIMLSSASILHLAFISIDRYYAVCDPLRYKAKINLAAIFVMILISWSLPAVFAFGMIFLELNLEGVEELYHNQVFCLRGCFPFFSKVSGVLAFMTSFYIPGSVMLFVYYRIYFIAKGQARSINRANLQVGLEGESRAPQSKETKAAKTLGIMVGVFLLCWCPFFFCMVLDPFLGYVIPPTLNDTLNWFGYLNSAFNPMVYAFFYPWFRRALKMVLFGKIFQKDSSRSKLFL
Sequence of mouse TAAR1 (Q923Y8 whole entry): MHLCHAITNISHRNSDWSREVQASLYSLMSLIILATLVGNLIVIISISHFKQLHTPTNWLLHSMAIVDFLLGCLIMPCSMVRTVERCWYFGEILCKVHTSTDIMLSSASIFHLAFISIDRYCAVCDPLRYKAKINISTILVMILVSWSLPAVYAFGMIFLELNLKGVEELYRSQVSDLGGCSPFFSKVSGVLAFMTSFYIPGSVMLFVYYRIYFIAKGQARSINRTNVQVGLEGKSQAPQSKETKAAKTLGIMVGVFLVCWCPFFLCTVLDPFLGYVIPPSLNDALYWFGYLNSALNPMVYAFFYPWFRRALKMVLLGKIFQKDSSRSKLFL

Ki (mouse TAAR1) [µM] | Ki (rat TAAR1) [µM] | SMILES | Ki (mouse TAAR1; [1]) [µM] | Ki (rat TAAR1; [2]) [µM]
0.031 | > 1.45 | O=C(CCC(F)(F)F)Nc1ccc([C@@H]2O[C@H]3CN[C@@H]2C3)cc1 [Example 91, 4,4,4-Trifluoro-N-[4-[(1R,3S,4R)-2-oxa-5-azabicyclo[2.2.1]heptan-3-yl]phenyl]butanamide] |  | 
0.0064 | 0.693 | CCOc1ccc(C(=O)Nc2ccc([C@H]3O[C@@H]4CN[C@H]3C4)cc2)cc1 [Example 17, 4-Ethoxy-N-[4-[(1S,3R,4S)-2-oxa-5-azabicyclo[2.2.1]heptan-3-yl]phenyl]benzamide] |  | 
0.0035 | 0.127 | CCc1n[nH]c(C(=O)Nc2ccc([C@@H]3O[C@H]4CN[C@@H]3C4)cc2)c1Br [Example 99, 4-Bromo-3-ethyl-N-[4-[(1R,3S,4R)-2-oxa-5-azabicyclo[2.2.1]heptan-3-yl]phenyl]-1H-pyrazole-5-carboxamide] |  | 
0.0009 | 0.0501 | O=C(Nc1ccc(Br)cc1)c1ccc([C@H]2O[C@@H]3CN[C@H]2C3)cc1 [Example 56, N-(4-Bromophenyl)-4-[(1S,3R,4S)-2-oxa-5-azabicyclo[2.2.1]heptan-3-yl]benzamide] |  | 
0.0077 | 1.08 | FC(F)(F)COc1nccc(Nc2ccc([C@H]3O[C@@H]4CN[C@H]3C4)cc2)n1 [Example 80, N-[4-[(1S,3R,4S)-2-Oxa-5-azabicyclo[2.2.1]heptan-3-yl]phenyl]-2-(2,2,2-trifluoroethoxy)pyrimidin-4-amine] |  | 
0.337 | 10 | O=C(Nc1ccc([C@H]2O[C@@H]3CN[C@H]2C3)cc1)c1ccnc(C(F)(F)F)n1 [Example 42, N-[4-[(1S,3R,4S)-2-Oxa-5-azabicyclo[2.2.1]heptan-3-yl]phenyl]-2-(trifluoromethyl)pyrimidine-4-carboxamide] |  | 
 |  | CC(C)c1n[nH]c(C(=O)Nc2ccc([C@@H]3O[C@H]4CN[C@@H]3C4)cc2)c1Cl [Example 102, 4-Chloro-3-isopropyl-N-[4-[(1R,3S,4R)-2-oxa-5-azabicyclo[2.2.1]heptan-3-yl]phenyl]-11H-pyrazole-5-carboxamide] | 0.0089 | 0.0142
0.0034 | 0.593 | O=C(NCc1ccc(C(F)(F)F)cc1)c1ccc([C@H]2O[C@@H]3CN[C@H]2C3)cc1 [Example 63, 4-[(1S,3R,4S)-2-Oxa-5-azabicyclo[2.2.1]heptan-3-yl]-N-[[4-(trifluoromethyl)phenyl]methyl]benzamide] |  | 
 |  | CCc1n[nH]c(C(=O)Nc2ccc([C@@H]3O[C@H]4CN[C@@H]3C4)cc2)c1C [Example 67, 3-Ethyl-4-methyl-N-[4-[(1R,3S,4R)-2-oxa-5-azabicyclo[2.2.1]heptan-3-yl]phenyl]-11H-pyrazole-5-carboxamide] | 0.01 | 0.503
0.0057 | 0.0807 | CC(C)Cc1cc(C(=O)Nc2ccc([C@@H]3O[C@H]4CN[C@@H]3C4)cc2)[nH]n1 [Example 101, 3-Isobutyl-N-[4-[(1R,3S,4R)-2-oxa-5-azabicyclo[2.2.1]heptan-3-yl]phenyl]-1H-pyrazole-5-carboxamide] |  | 
0.0043 | 0.178 | CCOc1ccc(C(=O)Nc2ccc([C@@H]3O[C@H]4CN[C@@H]3C4)cc2)cc1 [Example 28, 4-Ethoxy-N-[4-[(1R,3S,4R)-2-oxa-5-azabicyclo[2.2.1]heptan-3-yl]phenyl]benzamide] |  | 
0.0047 | 0.0842 | CCc1n[nH]c(C(=O)Nc2ccc([C@@H]3O[C@H]4CN[C@@H]3C4)cc2)c1Cl [Example 76, 4-Chloro-3-ethyl-N-[4-[(1R,3S,4R)-2-oxa-5-azabicyclo[2.2.1]heptan-3-yl]phenyl]-1H-pyrazole-5-carboxamide] |  | 
0.0042 | 0.0803 | CCCCc1cc(C(=O)Nc2ccc([C@@H]3O[C@H]4CN[C@@H]3C4)cc2)[nH]n1 [Example 93, 3-Butyl-N-[4-[(1R,3S,4R)-2-oxa-5-azabicyclo[2.2.1]heptan-3-yl]phenyl]-1H-pyrazole-5-carboxamide] |  | 
2.99 | 0.132 | O=C(Nc1cccc([C@@H]2O[C@H]3CN[C@@H]2C3)c1)c1cccc(Cl)c1 [Example 1, 3-Chloro-N-[3-[(1R,3S,4R)-2-oxa-5-azabicyclo[2.2.1]heptan-3-yl]phenyl]benzamide] |  | 
0.0144 | 0.167 | CC(C)c1cc(C(=O)Nc2ccc([C@H]3O[C@@H]4CN[C@H]3C4)cc2)[nH]n1 [Example 43, 3-Isopropyl-N-[4-[(1S,3R,4S)-2-oxa-5-azabicyclo[2.2.1]heptan-3-yl]phenyl]-1H-pyrazole-5-carboxamide] |  | 
0.0046 | 0.21 | O=C(Nc1ccc([C@H]2O[C@@H]3CN[C@H]2C3)cc1)c1cccc(Cl)c1 [Example 8, 3-Chloro-N-[4-[(1S,3R,4S)-2-oxa-5-azabicyclo[2.2.1]heptan-3-yl]phenyl]benzamide] |  | 
0.0123 | 3.96 | O=C(COCC(F)(F)F)Nc1ccc([C@H]2O[C@@H]3CN[C@H]2C3)cc1 [Example 66, N-[4-[(1S,3R,4S)-2-Oxa-5-azabicyclo[2.2.1]heptan-3-yl]phenyl]-2-(2,2,2-trifluoroethoxy)acetamide] |  | 
 |  | CCCCc1n[nH]c(C(=O)Nc2ccc([C@@H]3O[C@H]4CN[C@@H]3C4)cc2)c1F [Example 92, 3-Butyl-4-fluoro-N-[4-[(1R,3S,4R)-2-oxa-5-azabicyclo[2.2.1]heptan-3-yl]phenyl]-111H-pyrazole-5-carboxamide] | 0.0033 | 0.0879
0.0034 | 0.0438 | O=C(Nc1ccc([C@H]2O[C@@H]3CN[C@H]2C3)cc1)c1ccc(OCC(F)(F)F)cn1 [Example 51, N-[4-[(1S,3R,4S)-2-Oxa-5-azabicyclo[2.2.1]heptan-3-yl]phenyl]-5-(2,2,2-trifluoroethoxy)pyridine-2-carboxamide] |  | 
0.0097 | 0.19 | FC(F)(F)COc1nccc(Nc2ccc([C@@H]3O[C@H]4CN[C@@H]3C4)cc2)n1 [Example 83, N-[4-[(1R,3S,4R)-2-Oxa-5-azabicyclo[2.2.1]heptan-3-yl]phenyl]-2-(2,2,2-trifluoroethoxy)pyrimidin-4-amine] |  | 
0.006 | 0.0841 | FC(F)(F)COc1ccnc(Nc2ccc([C@H]3O[C@@H]4CN[C@H]3C4)cc2)n1 [Example 79, N-[4-[(1S,3R,4S)-2-Oxa-5-azabicyclo[2.2.1]heptan-3-yl]phenyl]-4-(2,2,2-trifluoroethoxy)pyrimidin-2-amine] |  | 
0.0033 | 1.6 | O=C(NCc1ccc(Cl)cc1)c1ccc([C@H]2O[C@@H]3CN[C@H]2C3)cc1 [Example 64, N-[(4-Chlorophenyl)methyl]-4-[(1S,3R,4S)-2-oxa-5-azabicyclo[2.2.1]heptan-3-yl]benzamide] |  | 
 |  | O=C(Nc1ccc([C@@H]2O[C@H]3CN[C@@H]2C3)cc1)c1[nH]nc(C2CC2)c1Cl [Example 82, 4-Chloro-3-cyclopropyl-N-[4-[(1R,3S,4R)-2-oxa-5-azabicyclo[2.2.1]heptan-3-yl]phenyl]-11H-pyrazole-5-carboxamide] | 0.0035 | 0.0339

SMILES | Ki (mouse TAAR1) [µM] | Ki (rat TAAR1) [µM] | Ki (mouse TAAR1; [1]) [µM] | Ki (rat TAAR1; [2]) [µM]
Clc1ccc(Nc2ccc([C@H]3O[C@@H]4CN[C@H]3C4)cc2)nc1 [Example 20, 5-Chloro-N-[4-[(1S,3R,4S)-2-oxa-5-azabicyclo[2.2.1]heptan-3-yl]phenyl]pyridin-2-amine] | 0.0041 | 0.397 |  | 
c1ccc([C@H]2O[C@@H]3CN[C@H]2C3)nc1 [Example 105, (1S,3S,4S)-3-(2-Pyridyl)-2-oxa-5-azabicyclo[2.2.1]heptane] | 0.0465 | 0.324 |  | 
CCc1ncc(C(=O)Nc2ccc([C@H]3O[C@@H]4CN[C@H]3C4)cc2)cn1 [Example 34, 2-Ethyl-N-[4-[(1S,3R,4S)-2-oxa-5-azabicyclo[2.2.1]heptan-3-yl]phenyl]pyrimidine-5-carboxamide] | 0.0563 | 0.457 |  | 
Clc1ccc(Nc2ccc([C@@H]3O[C@H]4CN[C@@H]3C4)cc2)nc1 [Example 24, 5-Chloro-N-[4-[(1R,3S,4R)-2-oxa-5-azabicyclo[2.2.1]heptan-3-yl]phenyl]pyridin-2-amine] | 0.0033 | 0.0318 |  | 
O=C(Nc1ccc([C@H]2O[C@@H]3CN[C@H]2C3)cc1)c1ccnc(C(F)(F)F)c1 [Example 25, N-[4-[(1S,3R,4S)-2-Oxa-5-azabicyclo[2.2.1]heptan-3-yl]phenyl]-2-(trifluoromethyl)pyridine-4-carboxamide] | 0.0224 | 0.327 |  | 
FC(F)(F)c1ccc(Nc2ccc([C@H]3O[C@@H]4CN[C@H]3C4)cc2)cn1 [Example 61, N-[4-[(1S,3R,4S)-2-Oxa-5-azabicyclo[2.2.1]heptan-3-yl]phenyl]-6-(trifluoromethyl)pyridin-3-amine] | 0.0077 | 0.715 |  | 
CCOc1ccc(NC(=O)c2ccc([C@H]3O[C@@H]4CN[C@H]3C4)cc2)cc1 [Example 58, N-(4-Ethoxyphenyl)-4-[(1S,3R,4S)-2-oxa-5-azabicyclo[2.2.1]heptan-3-yl]benzamide] | 0.0013 | > 10 |  | 
O=C(Nc1ccc([C@@H]2O[C@H]3CN[C@@H]2C3)cc1)c1ccc(OCC(F)(F)F)nc1 [Example 27, N-[4-[(1R,3S,4R)-2-Oxa-5-azabicyclo[2.2.1]heptan-3-yl]phenyl]-6-(2,2,2-trifluoroethoxy)pyridine-3-carboxamide] | 0.0097 | 0.0417 |  | 
O=C(Nc1ccc([C@@H]2O[C@H]3CN[C@@H]2C3)cc1)c1ccnc(C(F)(F)F)n1 [Example 81, N-[4-[(1R,3S,4R)-2-Oxa-5-azabicyclo[2.2.1]heptan-3-yl]phenyl]-2-(trifluoromethyl)pyrimidine-4-carboxamide] | 0.0271 | 0.189 |  | 
O=C(Nc1ccc(Cl)cc1)c1ccc([C@@H]2O[C@H]3CN[C@@H]2C3)cc1 [Example 85] | 0.0164 | 1.08 |  | 
Fc1ccccc1[C@@H]1O[C@H]2CN[C@@H]1C2 [Example 106, (1R,3S,4R)-3-(2-Fluorophenyl)-2-oxa-5-azabicyclo[2.2.1]heptane] | 1.03 | 0.836 |  | 
c1ccc([C@@H]2O[C@H]3CN[C@@H]2C3)nc1 [Example 104, (1R,3R,4R)-3-(2-Pyridyl)-2-oxa-5-azabicyclo[2.2.1]heptane] | > 1.49 | > 1.5 |  | 
